Source: patent US20250221930A1, “A COMPOSITION COMPRISING LIPID NANOPARTICLES AND AN ANTIFUNGAL POLYENE” (INSTITUT NATIONAL DE LA SANTÉ ET DE LA RECHERCHE MÉDICALE, priority 2022, published 2025)
Read-outs that look alike come from different tables or passages of the source.

Legend:
Mucor circinelloides = assay: Checkerboard AmB MIC with surfactant in solution, inhibitory Emax model; type: cell-based; settings: M. circinelloides
Procedure: (§1) Twelve clinical isolates of Mucorales identified by ARNr sequencing were used: Rhizopus arrhizus (5), Rhizopus microsporus (1), Lichtheimia corymbifera (3), Lichtheimia ramosa (1), Mucor circinelloides (1), Rhizomucor pusillus (1). Isolates were subcultured from frozen stocks (−80° C.) on 75 cm^3 flasks containing 15 mL of Sabouraud dextrose agar (Sigma-Aldrich, St. Quentin Fallavier, France) during 3 days at 37° C. Spores were collected by flooding the flask with 10 ml of sterile water. The suspensions were filtered on nylon filter (Millipore, Carrigtwohill, Ireland) with pore size of 11 μm to remove hyphal elements. The concentration of the spore suspensions was then adjusted in sterile water to obtain inocula of 2×10^5 spores/mL.
(§2) AmB powder (Sigma-Aldrich) was dissolved in dimethyl sulfoxide to get a stock solution at 8192 mg/L stored at −80° C. for six months. On the day of use, AmB and freshly made surfactant solutions (in RPMI or PBS) were diluted in the same medium (RPMI or PBS) to obtain desired concentrations. Surfactants used (polyethylene glycol (15)-hydroxystearate (also named Solutol® HS15 or Kolliphor® HS 15, or Macrogol 15 Hydroxystearate); polyoxyethylene (10) stearyl ether (Brij® S10); polyoxyethylene (20) stearyl ether (Brij® S20); polyoxyethylene (20) oleyl ether (Brij® 020); and polyoxyethylene (10) cetyl ether (Brij® C10)), which have their chemical structure presented in FIG. 7, were purchased from Sigma-Aldrich.
(§3) AmB minimum inhibitory concentrations (MIC) of each strain of Mucorales was measured in RPMI the presence of different concentrations of surfactant as described by the EUCAST broth microdilution antifungal susceptibility test methodology with modification for the checkerboard procedure. Checkerboards were performed by adding 100 μL of two-fold dilutions of AmB (0.008 to 4 mg/L) and surfactant solutions (0.04 to 2752 mg/L) in 96 well plates. One hundred microliters of a spore suspension at a concentration of 105 spores/mL were added to the wells, and the plates were incubated for 24 h at 37° C. […] Three experiments were performed for each strain.
(§4) An inhibitory Emax model (Equation 1) developed by Chauzy et al. (Chauzy, A.; Buyck, J.; de Jonge, B. L. M.; Marchand, S.; Grégoire, N.; Couet, W. Pharmacodynamic Modelling of β-Lactam/β-Lactamase Inhibitor Checkerboard Data: Illustration with Aztreonam-Avibactam. Clin. Microbiol. Infect. 2019, 25, 515.e1-515.e4, doi: 10.1016/j.cmi.2018.11.025) to evaluate the enhancing effect of non-antibiotics molecules on the efficacy of antibiotic against bacteria was used here to describe the average decrease in AmB MIC values (MICsurf) against various Mucorales strains in relation to surfactant concentrations (Csurf).
(§5) In equation 1, MIC0 refers to the AmB MIC measured without surfactants and MIC∞ is the lowest AmB MIC measured in the presence of surfactant. The maximal ratio in AmB MIC decrease defined as maximal efficacy (Emax) was calculated as the ratio of MIC0/MIC∞. EC50 is the concentration of surfactant producing 50% of the Emax and characterizes the potency of the surfactants. These parameters were evaluated using WinNonlin software (version 6.2, Certara, NJ, USA) as described by Chauzy et al.

Rhizopus arrhizus = assay: as above; type: cell-based
Procedure: as §1, §2, §3, §4, §5

Rhizopus microsporus = assay: as above; type: cell-based; settings: R. microsporus
Procedure: as §1, §2, §3, §4, §5

Lichtheimia corymbifera = assay: as above; type: cell-based
Procedure: as §1, §2, §3, §4, §5

Lichtheimia ramosa [1] = assay: as above; type: cell-based; settings: L. ramosa
Procedure: as §1, §2, §3, §4, §5

Rhizomucor pusillus = assay: as above; type: cell-based; settings: R. pusillus
Procedure: as §1, §2, §3, §4, §5

L. ramosa = assay: Checkerboard MICs of AmB, ISA and PEG15HS in solution; type: cell-based, Lichtheimia ramosa; settings: RPMI, 24 h at 37° C.
Procedure: as §3, with “RPMI in” for “RPMI”, “ISA or PEG15HS” for “surfactant”, “ISA (0.008 to 4 mg/L) or PEG15HS” for “surfactant solutions”
(§6) AmB MIC of each strain of Mucorales was measured in RPMI in the presence of different concentrations of ISA and a constant concentration of PEG15HS (100 times the concentration of AmB) as described by the EUCAST broth microdilution antifungal susceptibility test methodology with modification for the checkerboard procedure. Checkerboards were performed by adding 100 μL of two-fold dilutions of AmB (0.008 to 4 mg/L)+PEG15HS (0.8 to 400 mg/L) and ISA (0.008 to 4 mg/L) in 96 well plates. One hundred microliters of a spore suspension at a concentration of 105 spores/mL were added to the wells, and the plates were incubated for 24 h at 37° C. […] Three experiments were performed for each strain. […]

Lichtheimia ramosa [2] = assay: MIC of AmB in solution with blank lipid nanoparticles (BLNPs), EUCAST broth microdilution; type: cell-based; settings: AmB in solution in RPMI, without PEG15HS LNPs
Procedure: MICs for each fungi were measured in the presence of different concentrations of AmB (solubilized in the LNP suspensions or loaded in the LNP) as described by the EUCAST broth microdilution antifungal susceptibility test methodology (EUCAST DEFINITIVE DOCUMENT E.Def 9.3.2 Apr. 2020. EUCAST antifungal MIC method for mould).
A clinical isolate of Lichtheimia ramosa was used. Isolate were subcultured from frozen stocks (−80° C.) on 75 cm^3 flasks containing 15 ml of Sabouraud dextrose agar (Sigma-Aldrich, St. Quentin Fallavier, France) during 3 days at 37° C. Spores were collected by flooding the flask with 10 mL of sterile water. The suspensions were filtered on nylon filter (Millipore, Carrigtwohill, Ireland) with pore size of 11 μm to remove hyphal elements. The concentration of the spore suspensions was then adjusted in sterile water to obtain inocula of 2×10^5 spores/mL.
The MIC of the formulations for Lichtheimia ramosa was assayed.

L. corymbifera = assay: Checkerboard MICs of AmB, ISA and PEG15HS in solution; type: cell-based, Lichtheimia corymbifera; settings: RPMI, 24 h at 37° C.
Procedure: as §3, with “RPMI in” for “RPMI”, “ISA or PEG15HS” for “surfactant”, “ISA (0.008 to 4 mg/L) or PEG15HS” for “surfactant solutions”
as §6

Procedure for human erythrocytes: Human blood samples from different healthy volunteers was collected in EDTA tubes and centrifuged at 3000×g for 5 minutes. Plasma was removed and the erythrocytes were washed four times with 2 ml of 0.9% NaCl by centrifugation at 3000×g for 5 minutes.
Erythrocytes were suspended in PBS pH 7.4 and their concentration was adjusted to 5·10^8 cells/mL. Erythrocytes were then incubated with AmB solubilised as a solution or loaded in LNP for 1 hour at 37° C. under shaking, then centrifuged at 3000×g for 5 minutes. Then, 100 μL of the supernatant were transferred in a flat-bottomed transparent 96-well plate and the absorbance was measured at 540 nm. Untreated erythrocytes dispersed in PBS were used as a negative control, and erythrocytes treated by 1% (v/v) of TritonX-100 were used as a positive control. Percentage of hemolysis was calculated using the following equation: 100*(Asample−Acontrol)/(aTritonX−100−Anegative), where Asample is the absorbance measured for each experimental conditions, Anegative and aTritonX-100 are the absorbance of negative and positive controls, respectively.
Sterile Dulbelcc”s phosphate buffered saline (DDPBS, Dominique Dutscher, Bernolsheim, France) pH 7 was also used as a medium to measure the hemolytic activity of AmB.

Structure (SMILES): C[C@@H]1[C@H](O)[C@@H](C)/C=C/C=C/C=C/C=C/C=C/C=C/C=C/[C@H](O[C@@H]2O[C@H](C)[C@@H](O)[C@H](N)[C@@H]2O)C[C@@H]2O[C@](O)(C[C@@H](O)C[C@@H](O)[C@H](O)CC[C@@H](O)C[C@@H](O)CC(=O)O[C@H]1C)C[C@H](O)[C@H]2C(=O)O [AmB, amphotericin B]
- hemolysis (human erythrocytes; in PBS, 5 to 15 mg/L of AmB): induce hemolysis
- hemolysis (human erythrocytes; in RPMI, AmB 15, 30 mg/L): induce hemolysis
- MIC0 (MIC of AmB in the absence of surfactant) (Mucor circinelloides): 0.19 µg/mL
- MIC0 (MIC of AmB in the absence of surfactant) (Rhizopus arrhizus; R. arrhizus 1): 0.28 µg/mL
- MIC0 (MIC of AmB in the absence of surfactant) (Rhizopus arrhizus; R. arrhizus 2): 0.44 µg/mL
- MIC0 (MIC of AmB in the absence of surfactant) (Rhizopus arrhizus; R. arrhizus 3): 0.59 µg/mL
- MIC0 (MIC of AmB in the absence of surfactant) (Rhizopus arrhizus; R. arrhizus 4): 0.61 µg/mL
- MIC0 (MIC of AmB in the absence of surfactant) (Rhizopus arrhizus; R. arrhizus 5): 0.35 µg/mL
- MIC0 (MIC of AmB in the absence of surfactant) (Rhizopus microsporus): 0.68 µg/mL
- MIC0 (MIC of AmB in the absence of surfactant) (Lichtheimia corymbifera; L. corymbifera 1): 0.36 µg/mL
- MIC0 (MIC of AmB in the absence of surfactant) (Lichtheimia corymbifera; L. corymbifera 2): 0.06 µg/mL
- MIC0 (MIC of AmB in the absence of surfactant) (Lichtheimia corymbifera; L. corymbifera 3): 0.25 µg/mL
- MIC0 (MIC of AmB in the absence of surfactant) (Lichtheimia ramosa [1]): 0.51 µg/mL
- MIC0 (MIC of AmB in the absence of surfactant) (Rhizomucor pusillus): 0.25 µg/mL
- MIC of AmB (L. ramosa): 1 µg/mL
- MIC of AmB (Lichtheimia ramosa [2]): 0.5 µg/mL
- MIC of AmB (L. corymbifera): 1 µg/mL
